What was measured:
ABUTH [1] = experiment: Herbicidal pre-emergence action - Part I; assay type: in vivo, Abutilon theophrasti; details: visual grading after ca. 3 weeks vs untreated controls
Description: Seeds of mono- and dicotyledonous weed plants were sown in plastic pots (double sowings with one species of mono- and one species of dicotyledonous weed plants per pot), in sandy loam, and covered with soil. The compounds according to the invention, formulated in the form of wettable powders (WP) or as emulsifiable concentrates (EC), were applied to the surface of the covering soil as aqueous suspension or emulsion, with the addition of 0.5% of an additive, at an application rate of 600 1 of water per hectare (converted). Following treatment, the pots were placed in a greenhouse and kept under optimum growth conditions for the test plants. The visual grading of the damage to the test plants was carried out after ca. 3 weeks in comparison to untreated controls (herbicidaleffectinpercent(%):100%effect=plantshavediedoff,0%effect=ascontrolplants). [formula]
Tables A1 to A12, below, show the effects of selected compounds of the general formula (I) according to table 1 on various harmful plants and an application rate corresponding to 1280 g/ha or below obtained by the experimental procedure mentioned above. Table A1: pre-emergence activity at 1280g/ha against ABUTH in %

ABUTH [2] = experiment: Herbicidal post-emergence action - Part II; assay type: in vivo, Abutilon theophrasti
Description: (§1) Seeds of mono- and dicotyledonous weed plants and crop plants were sown, in plastic or organic planting pots, in sandy loam, covered with soil and grown in a greenhouse under controlled growth conditions. 2 to 3 weeks after sowing, the test plants were sprayed in the single-leaf stage. The compounds according to the invention, formulated in form of wettable powders (WP) or as emulsifiable concentrates (EC), were sprayed onto the green plant parts as aqueous suspension or emulsion, with the addition of 0.5% of an additive, at an application rate of 600 1 of water/ha (converted). The test plants were placed in the greenhouse for ca. 3 weeks under optimum growth conditions, and then the effect of the preparations was assessed visually in comparison with untreated controls (herbicidal effect in percent (%): 100% effect = plants have died off, 0% effect = as control plants). Tables E1 to E10 below show the effects of selected compounds of the general formula (I) according to table 1 on various harmful plants and an application rate corresponding to 320 g/ha or below obtained by the experimental procedure mentioned above. Table E1a: post-emergence activity at 5g/ha against ABUTH in %

AMARE = experiment: Herbicidal post-emergence action - Part II; assay type: in vivo, Amaranthus retroflexus
Description: as §1

ECHCG = experiment: Herbicidal post-emergence action - Part II; assay type: in vivo, Echinochloa crus-galli; details: 20 g/ha; Table E3a
Description: as §1

MATIN = experiment: Herbicidal post-emergence action - Part II; assay type: in vivo, Matricaria inodora
Description: as §1

PHBPU = experiment: Herbicidal post-emergence action - Part II; assay type: in vivo, Pharbitis purpurea
Description: as §1

POLCO = experiment: Herbicidal post-emergence action - Part II; assay type: in vivo, Polygonum convolvulus; details: 20 g/ha; Table E6
Description: as §1

SETVI = experiment: Herbicidal post-emergence action - Part II; assay type: in vivo, Setaria viridis; details: 20 g/ha; Table E7b
Description: as §1

VERPE = experiment: Herbicidal post-emergence action - Part II; assay type: in vivo, Veronica persica
Description: as §1

VIOTR = experiment: Herbicidal post-emergence action - Part II; assay type: in vivo, Viola tricolor
Description: as §1

TRZAS = experiment: Post-emergence effects on crop plants; assay type: in vivo, Triticum aestivum; details: crop plant
Description: as §1, with “F1” for “E1”, “F5” for “E10”, “crop” for “harmful”, “[…]:” for “E1a:”, “ZEAMX” for “ABUTH”

ZEAMX = experiment: Post-emergence effects on crop plants; assay type: in vivo, Zea mays; details: crop plant
Description: as §1, with “F1” for “E1”, “F5” for “E10”, “crop” for “harmful”, “[…]:” for “E1a:”, “ZEAMX” for “ABUTH”

BRSNW = experiment: Post-emergence effects on crop plants; assay type: in vivo, Brassica napus; details: 5 g/ha; Table F5a; crop plant
Description: as §1, with “F1” for “E1”, “F5” for “E10”, “crop” for “harmful”, “[…]:” for “E1a:”, “ZEAMX” for “ABUTH”

Cc1ccsc1C1=NOC2(CCN(Cc3sc(Cl)nc3C)C2=O)C1 (racemic) [Compound I-48]
100%: pre-emergence activity at 1280g/ha against ABUTH in % (ABUTH [1])

Cn1c(C(F)(F)F)cc(=O)n(-c2cc(C3=NOC4(CCN(Cc5cccc(F)c5F)C4=O)C3)c(Cl)cc2F)c1=O (racemic) [Compound I-33]
20%: post-emergence activity against TRZAS (TRZAS; 5 g/ha, Table F2a) | post-emergence activity against TRZAS (TRZAS; 20 g/ha, Table F2b)
100%: post-emergence activity against ABUTH (ABUTH [2]; 5 g/ha, Table E1a) | post-emergence activity against ABUTH (ABUTH [2]; 20 g/ha, Table E1b) | post-emergence activity against AMARE (AMARE; 5 g/ha, Table E2a) | post-emergence activity against AMARE (AMARE; 20 g/ha, Table E2b) | post-emergence activity against ECHCG (ECHCG) | post-emergence activity against MATIN (MATIN; 20 g/ha, Table E4b) | post-emergence activity against PHBPU (PHBPU; 5 g/ha, Table E5a) | post-emergence activity against PHBPU (PHBPU; 20 g/ha, Table E5b) | post-emergence activity against POLCO (POLCO) | post-emergence activity against SETVI (SETVI) | post-emergence activity against VERPE (VERPE; 5 g/ha, Table E8a) | post-emergence activity against VERPE (VERPE; 20 g/ha, Table E8b) | post-emergence activity against VIOTR (VIOTR; 5 g/ha, Table E9a) | post-emergence activity against VIOTR (VIOTR; 20 g/ha, Table E9b)
90%: post-emergence activity against MATIN (MATIN; 5 g/ha, Table E4a)

COC(=O)CN1CCC2(CC(c3cc(-n4c(=O)cc(C(F)(F)F)n(C)c4=O)c(F)cc3Cl)=NO2)C1=O (racemic) [Compound I-58]
10%: post-emergence activity against ZEAMX (ZEAMX; 5 g/ha, Table F1a) | post-emergence activity against TRZAS (TRZAS; 5 g/ha, Table F2a)
0%: post-emergence activity against BRSNW (BRSNW)
90%: post-emergence activity against ABUTH (ABUTH [2]; 20 g/ha, Table E1b) | post-emergence activity against PHBPU (PHBPU; 5 g/ha, Table E5a)
20%: post-emergence activity against ZEAMX (ZEAMX; 20 g/ha, Table F1b) | post-emergence activity against TRZAS (TRZAS; 20 g/ha, Table F2b)
100%: post-emergence activity against AMARE (AMARE; 20 g/ha, Table E2b) | post-emergence activity against PHBPU (PHBPU; 20 g/ha, Table E5b) | post-emergence activity against POLCO (POLCO) | post-emergence activity against VERPE (VERPE; 20 g/ha, Table E8b) | post-emergence activity against VIOTR (VIOTR; 20 g/ha, Table E9b)
80%: post-emergence activity against AMARE (AMARE; 5 g/ha, Table E2a) | post-emergence activity against VIOTR (VIOTR; 5 g/ha, Table E9a)

— patent publication EP4509511A1, “SUBSTITUTED SPIRO-ISOXAZOLINYL LACTAMS, SALTS THEREOF AND THEIR USE AS HERBICIDALLY ACTIVE SUBSTANCES” (Bayer Aktiengesellschaft, priority 2023, dated 2025)
